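Briefly, cells in 96-well plates were exposed to five compound concentrations for 48 h, and endpoints were estimated by linear interpolation. At the TGI there is no net growth.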
What was measured:
Assay in all cases: growth of human tumour cells (NCI), 48 h
MDA-MB-231 breast = system: MDA-MB-231 breast
CAKI-1 renal = system: CAKI-1 renal
NCI/ADR-RES ovarian = system: NCI/ADR-RES ovarian
SF-539 CNS = system: SF-539 CNS
HOP-62 NSCLC = system: HOP-62 NSCLC
SK-MEL-2 melanoma = system: SK-MEL-2 melanoma
NCI-H522 lung = system: NCI-H522 lung
OVCAR-8 ovarian = system: OVCAR-8 ovarian
A498 renal = system: A498 renal
SF-268 CNS = system: SF-268 CNS
UO-31 renal = system: UO-31 renal
HT29 colon = system: HT29 colon
MOLT-4 leukemia = system: MOLT-4 leukemia
ACHN renal = system: ACHN renal
PC-3 prostate = system: PC-3 prostate
MDA-MB-435 = system: MDA-MB-435
COLO 205 colon = system: COLO 205 colon
NCI-H460 lung = system: NCI-H460 lung
BT-549 breast = system: BT-549 breast
A549 NSCLC = system: A549 NSCLC
M14 melanoma = system: M14 melanoma
SK-MEL-5 melanoma = system: SK-MEL-5 melanoma
HCC-2998 colon = system: HCC-2998 colon
OVCAR-3 ovarian = system: OVCAR-3 ovarian
HOP-92 NSCLC = system: HOP-92 NSCLC
MCF7 breast = system: MCF7 breast
OVCAR-4 ovarian = system: OVCAR-4 ovarian
UACC-257 melanoma = system: UACC-257 melanoma
CCRF-CEM leukemia = system: CCRF-CEM leukemia
SN12C renal = system: SN12C renal
T-47D breast = system: T-47D breast
IGROV1 ovarian = system: IGROV1 ovarian
UACC-62 melanoma = system: UACC-62 melanoma
HL-60(TB) leukemia = system: HL-60(TB) leukemia
TK-10 renal = system: TK-10 renal
SNB-75 CNS = system: SNB-75 CNS
DU-145 prostate = system: DU-145 prostate
EKVX NSCLC = system: EKVX NSCLC
OVCAR-5 ovarian = system: OVCAR-5 ovarian
RPMI-8226 leukemia = system: RPMI-8226 leukemia
NCI-H23 lung = system: NCI-H23 lung
KM12 colon = system: KM12 colon
SF-295 CNS = system: SF-295 CNS
LOX IMVI melanoma = system: LOX IMVI melanoma
SNB-19 CNS = system: SNB-19 CNS
MALME-3M melanoma = system: MALME-3M melanoma
HS 578T breast = system: HS 578T breast
HCT-15 colon = system: HCT-15 colon
SK-MEL-28 melanoma = system: SK-MEL-28 melanoma
NCI-H226 lung = system: NCI-H226 lung
786-0 renal = system: 786-0 renal
U251 CNS = system: U251 CNS
SK-OV-3 ovarian = system: SK-OV-3 ovarian
MDA-N = system: MDA-N
RXF 393 renal = system: RXF 393 renal
SW-620 colon = system: SW-620 colon
K-562 leukemia = system: K-562 leukemia
HCT-116 colon = system: HCT-116 colon

## O=c1sc2c(s1)-c1sc(=O)sc1SS2
MDA-MB-231 breast
  TGI: > 100 µM
CAKI-1 renal
  TGI: > 100 µM
NCI/ADR-RES ovarian
  TGI: > 76.3 µM
SF-539 CNS
  TGI: 99.1 µM
HOP-62 NSCLC
  TGI: > 100 µM
SK-MEL-2 melanoma
  TGI: > 100 µM
NCI-H522 lung
  TGI: > 100 µM
OVCAR-8 ovarian
  TGI: 48.9 µM
A498 renal
  TGI: > 62.2 µM
SF-268 CNS
  TGI: > 100 µM
UO-31 renal
  TGI: > 100 µM
HT29 colon
  TGI: > 56.9 µM
MOLT-4 leukemia
  TGI: > 100 µM
ACHN renal
  TGI: > 100 µM
PC-3 prostate
  TGI: > 100 µM
MDA-MB-435
  TGI: > 100 µM
COLO 205 colon
  TGI: > 65 µM
NCI-H460 lung
  TGI: > 100 µM
BT-549 breast
  TGI: > 100 µM
A549 NSCLC
  TGI: > 100 µM
M14 melanoma
  TGI: > 100 µM
SK-MEL-5 melanoma
  TGI: > 100 µM
HCC-2998 colon
  TGI: > 100 µM
OVCAR-3 ovarian
  TGI: > 100 µM
HOP-92 NSCLC
  TGI: > 100 µM
MCF7 breast
  TGI: > 100 µM
OVCAR-4 ovarian
  TGI: > 100 µM
UACC-257 melanoma
  TGI: > 100 µM
CCRF-CEM leukemia
  TGI: > 96 µM
SN12C renal
  TGI: > 100 µM
T-47D breast
  TGI: > 100 µM
IGROV1 ovarian
  TGI: > 100 µM
UACC-62 melanoma
  TGI: > 100 µM
HL-60(TB) leukemia
  TGI: > 100 µM
TK-10 renal
  TGI: > 79.4 µM
SNB-75 CNS
  TGI: > 100 µM
DU-145 prostate
  TGI: > 89.8 µM
EKVX NSCLC
  TGI: > 100 µM
OVCAR-5 ovarian
  TGI: > 75.3 µM
RPMI-8226 leukemia
  TGI: > 100 µM
NCI-H23 lung
  TGI: > 60.5 µM
KM12 colon
  TGI: > 100 µM
SF-295 CNS
  TGI: > 100 µM
LOX IMVI melanoma
  TGI: > 100 µM
SNB-19 CNS
  TGI: > 100 µM
MALME-3M melanoma
  TGI: > 100 µM
HS 578T breast
  TGI: > 100 µM
HCT-15 colon
  TGI: > 31.6 µM
SK-MEL-28 melanoma
  TGI: > 100 µM
NCI-H226 lung
  TGI: > 73.1 µM
786-0 renal
  TGI: > 100 µM
U251 CNS
  TGI: > 31.6 µM
SK-OV-3 ovarian
  TGI: > 100 µM
MDA-N
  TGI: > 100 µM
RXF 393 renal
  TGI: > 100 µM
SW-620 colon
  TGI: > 100 µM
K-562 leukemia
  TGI: > 100 µM
HCT-116 colon
  TGI: > 100 µM

Source: PubChem BioAssay (NCI)
